# Laboratory results taken from publication PMC5931096, “A Phase I study of the novel immunomodulatory agent PG545 (pixatimod) in subjects with advanced solid tumours” (British Journal of Cancer, 2018).
# “Also recorded” adds a separate entry of the source. Like-named read-outs stand apart in the source and are kept apart here.
# Columns and labels:
# [1] = test system: advanced solid malignancies; assay: Clinical activity by RECIST 1.1; type: in vivo, human
# Procedure: All patients were assessed for safety, those who received at least one dose of PG545 were evaluated for efficacy. Safety assessment included the incidence of all adverse events (AEs), irrespective of relationship to study drug, according to the National Cancer Institute Common Terminology Criteria for Adverse Events, version 4.0, and the incidence of patients experiencing dose modifications and/or premature discontinuation of study drug. Dose-limiting toxicities (DLTs) used to determine the MTD were defined as occurring during Cycle 1 of treatment only and related to PG545 according to investigator assessment. If no DLT occurred in the first three subjects, the next three-subject cohort was enrolled at the next highest available dose level. If a single DLT occurred, an additional three subjects was enrolled at the same dose level. Dose escalation continued until two subjects of the cohort experienced a DLT; this was defined as the toxic dose level. The dose-escalation phase was completed and MTD determined by reducing the dose to the next lowest dose compared to the toxic dose and expanding this cohort to at least 6 subjects.
# Subjects with measurable disease were assessed by computed tomography at baseline and every 8 weeks according to Response Evaluation Criteria in Solid Tumours (RECIST), version 1.1 criteria.
# heparanase = conditions: cited from earlier work
# [2] = test system: tumour-associated macrophages (TAM); design: method as in PMID 24970482, PMID 23696215; conditions: preclinical cancer models; cited from earlier work
# [3] = Plasma pharmacokinetics (LC-MS/MS, population PK model and NCA); type: in vivo, human; conditions: for AUC / Cmax / AUC(0-t) / half-life: human, plasma, intravenous
# Procedure: Plasma samples were obtained for the first (day 1) and fourth (day 22) doses, as follows: (1) pre-dosing (no more than 4 h prior to infusion start); (2) mid-point of infusion; prior to completion of infusion; 30 min post-infusion; then 2, 4, 6, 24, 48, 72, 144 and 168 h post-infusion. Samples were analysed for PG545 concentration using a validated liquid chromatography with tandem mass spectrometry (LC-MS/MS) assay.[13] A population PK model was developed using NONMEM® and individual non-compartmental analysis-type exposure parameter estimation was also performed.
# pDC and NK cells = assay: Flow cytometry of PBMC for DC and NK cell activation; type: in vivo, human
# Procedure: (§1) Plasma and peripheral blood mononuclear cell (PBMC) samples were obtained at various points for PD assessment with the exception of the 25 mg cohort, where PBMC were not collected. Plasma samples were analysed for the concentration of various markers, including cytokines, chemokines and heparanase using commercial ELISA (LifeSpan Biosciences, Seattle, WA), and array kits (Quansys, Logan, UT).
# Cryopreserved PBMC samples were analysed by flow cytometry for changes in abundance and activation status of DC and NK cells at day 3 post-treatment compared with pre-dose samples (day 1). Given the stimulatory nature of PG545 via TLR9 reported in mice,[18] efforts were primarily focussed on the assessments of pDC and NK cells though certain subjects with available sample underwent additional analyses. To assess pDC, cells were stained with antibodies to HLADR-peCy7, CD303-FITC, IFNα-647 (BD Biosciences, Franklin Lakes, NJ). To assess NK cells, cells were stained with antibodies to CD335-PE, CD3-APC, IFNγ-FITC (BD Biosciences). All intracellular cytokine staining samples were stimulated by 100 ng/mL PMA, 100 ng/mL ionomycin and 5 μg/mL Brefeldin A for 4 h at 37 °C. Samples were acquired using FACSCanto flow cytometers (BD Biosciences).
# [4] = test system: plasma IFNγ, TNFα, IP-10 and MCP-1; assay: Plasma cytokine/chemokine biomarkers (ELISA, array kits); type: in vivo, human
# Procedure: as §1
# [5] = 100 mg, dose number 1, NCA mean
# [6] = 100 mg, dose number 4, NCA mean
# [7] = 150 mg, dose number 1, NCA mean
# [8] = 150 mg, dose number 4, NCA mean
structure (smiles),measurement,setting,value
CC(C)CCC[C@@H](C)[C@H]1CC[C@H]2[C@@H]3CC[C@H]4C[C@@H](O[C@@H]5O[C@H](COS(=O)(=O)O)[C@@H](O[C@H]6O[C@H](COS(=O)(=O)O)[C@@H](O[C@H]7O[C@H](COS(=O)(=O)O)[C@@H](O[C@H]8O[C@H](COS(=O)(=O)O)[C@@H](OS(=O)(=O)O)[C@H](OS(=O)(=O)O)[C@H]8OS(=O)(=O)O)[C@H](OS(=O)(=O)O)[C@H]7OS(=O)(=O)O)[C@H](OS(=O)(=O)O)[C@H]6OS(=O)(=O)O)[C@H](OS(=O)(=O)O)[C@H]5OS(=O)(=O)O)CC[C@]4(C)[C@H]3CC[C@]12C [PG545],Estimated median duration of SD,[1]; 95% confidence interval from 39 days to 62 days,57 days
same,Disease control rate,"[1]; evaluable subjects (six of sixteen), at 8 weeks",38%
same,Best response,"[1]; human, in vivo",stable disease up to 24 weeks
same,Objective responses,[1]; monotherapy,No objective responses were reported
same,Patients with stable disease (SD) at 8 weeks,"[1]; of sixteen patients assessed, RECIST 1.1",six
same,Anti-heparanase activity,heparanase,strong anti-heparanase activity
same,Inhibition of tumour-associated macrophages (TAM),[2],potently inhibit
same,Exposure (AUC0–168 and Cmax) relative to dose,[3]; 150 mg dose level,sub-proportional
same,Dose proportionality of exposure,[3]; 25-150 mg,proportional up to 100 mg; also recorded: general dose-proportionate exposure up to 100 mg
same,AUC,"[3]; 25 mg, dose number 1, NCA mean",432 µg·h/mL
same,Cmax,"[3]; 25 mg, dose number 1, NCA mean",9600 ng/mL
same,AUC(0-t),"[3]; 25 mg, dose number 1, NCA mean, read-out: AUC0-96",339 µg·h/mL
same,AUC(0-t),"[3]; 25 mg, dose number 1, NCA mean, read-out: AUC0-last",465 µg·h/mL
same,half-life,"[3]; 25 mg, dose number 1, NCA mean, read-out: t1/2 (converted)",149 h
same,AUC,"[3]; 25 mg, dose number 4, NCA mean",841 µg·h/mL
same,Cmax,"[3]; 25 mg, dose number 4, NCA mean",12400 ng/mL
same,AUC(0-t),"[3]; 25 mg, dose number 4, NCA mean, read-out: AUC0-96",589 µg·h/mL
same,AUC(0-t),"[3]; 25 mg, dose number 4, NCA mean, read-out: AUC0-last",611 µg·h/mL
same,half-life,"[3]; 25 mg, dose number 4, NCA mean, read-out: t1/2 (converted)",123 h
same,AUC,"[3]; 50 mg, dose number 1, NCA mean",695 µg·h/mL
same,Cmax,"[3]; 50 mg, dose number 1, NCA mean",15600 ng/mL
same,AUC(0-t),"[3]; 50 mg, dose number 1, NCA mean, read-out: AUC0-96",539 µg·h/mL
same,AUC(0-t),"[3]; 50 mg, dose number 1, NCA mean, read-out: AUC0-last",710 µg·h/mL
same,half-life,"[3]; 50 mg, dose number 1, NCA mean, read-out: t1/2 (converted)",183 h
same,AUC,"[3]; 50 mg, dose number 4, NCA mean",1640 µg·h/mL
same,Cmax,"[3]; 50 mg, dose number 4, NCA mean",21700 ng/mL
same,AUC(0-t),"[3]; 50 mg, dose number 4, NCA mean, read-out: AUC0-96",1120 µg·h/mL
same,AUC(0-t),"[3]; 50 mg, dose number 4, NCA mean, read-out: AUC0-last",1690 µg·h/mL
same,half-life,"[3]; 50 mg, dose number 4, NCA mean, read-out: t1/2 (converted)",228 h
same,AUC,[3]; [5],1210 µg·h/mL
same,Cmax,[3]; [5],29500 ng/mL
same,AUC(0-t),"[3]; 100 mg, dose number 1, NCA mean, read-out: AUC0-96",974 µg·h/mL
same,AUC(0-t),"[3]; 100 mg, dose number 1, NCA mean, read-out: AUC0-last",1210 µg·h/mL
same,half-life,"[3]; 100 mg, dose number 1, NCA mean, read-out: t1/2 (converted)",133 h
same,AUC,[3]; [6],2250 µg·h/mL
same,Cmax,[3]; [6],35600 ng/mL
same,AUC(0-t),"[3]; 100 mg, dose number 4, NCA mean, read-out: AUC0-96",1610 µg·h/mL
same,AUC(0-t),"[3]; 100 mg, dose number 4, NCA mean, read-out: AUC0-last",2380 µg·h/mL
same,half-life,"[3]; 100 mg, dose number 4, NCA mean, read-out: t1/2 (converted)",133 h
same,AUC,[3]; [7],1500 µg·h/mL
same,Cmax,[3]; [7],37100 ng/mL
same,AUC(0-t),"[3]; 150 mg, dose number 1, NCA mean, read-out: AUC0-96",1190 µg·h/mL
same,AUC(0-t),"[3]; 150 mg, dose number 1, NCA mean, read-out: AUC0-last",1440 µg·h/mL
same,half-life,"[3]; 150 mg, dose number 1, NCA mean, read-out: t1/2 (converted)",117 h
same,AUC,[3]; [8],3190 µg·h/mL
same,Cmax,[3]; [8],48600 ng/mL
same,AUC(0-t),"[3]; 150 mg, dose number 4, NCA mean, read-out: AUC0-96",2230 µg·h/mL
same,AUC(0-t),"[3]; 150 mg, dose number 4, NCA mean, read-out: AUC0-last",2780 µg·h/mL
same,half-life,"[3]; 150 mg, dose number 4, NCA mean, read-out: t1/2 (converted)",128 h
same,half-life,"[3]; across all subjects, population PK model, read-out: Mean t1/2 (converted)",141 h
same,Between subject variability of CL,[3]; population PK model,75.6 % CV
same,Between subject variability of Vp,[3]; population PK model,61.2 % CV
same,Apparent central volume (Vc),"[3]; population PK model, IV",2.98 L
same,Apparent clearance (CL),"[3]; population PK model, IV",0.0165 L/h
same,Apparent peripheral volume (Vp),"[3]; population PK model, IV",11.9 L
same,pDC and NK cell activation parameters,pDC and NK cells; 150 mg cohort,unaffected or modestly responsive
same,Subjects with at least two-fold increased numbers of activated pDC or NK cells,"pDC and NK cells; 50 and 100 mg, 2 days after initial dose",six of the ten
same,"Increases in TNFα, IL-6 and IL-8 responses",[4]; 150 mg vs 100 mg cohort averages,strikingly higher at 150 mg
same,"Increase in plasma IFNγ, TNFα, IP-10 (CXCL10) and MCP-1 (CCL2)",[4]; after initial dose,up to 25 fold
